Results reported in ChEMBL document CHEMBL5584236, “Development of novel bisphenol derivatives with a membrane-targeting mechanism as potent gram-positive antibacterial agents” (Eur J Med Chem, 2024).
Active and inactive are the calls of the source. The calls are words filed in the database; no cut-off is given here.

What was measured:
[1] = test system: Staphylococcus aureus; assay: Induction of membrane permeabilization in methicillin-resistant Staphylococcus aureus NCTC10442 assessed as increase in fluorescence intensity measured upto 60 mins by SYTOX green assay; format: functional, organism-based
[2] = test system: Staphylococcus aureus; assay: Antibacterial activity against Staphylococcus aureus ATCC29213 assessed as reduction in bacterial growth incubated for 22 to 24 hrs in presence of FeCl2 by CLSI based broth microdilution method; format: functional; conditions: time 22-24 hrs
[3] = Cytotoxicity against HEK293 cells assessed as viable cells at 3.125 ug/ml incubated for 24 hrs by CCK-8 assay relative to control; format: toxicity, cell-based; conditions: human, at 3.125 µg/mL, read-out: Activity
[4] = test system: Staphylococcus aureus; assay: Synergistic […] activity against methicillin-resistant Staphylococcus aureus NCTC10442 assessed as fractional inhibitory concentration index incubated for 22 to 24 hrs in presence of mupirocin by CLSI based broth microdilution method; format: functional; conditions: time 22-24 hrs
[5] = test system: Acinetobacter baumannii; assay: Antibacterial activity against Acinetobacter baumannii ATCC17978 assessed as reduction in microbial growth incubated for 22 to 24 hrs by CLSI based broth microdilution method; format: functional; conditions: time 22-24 hrs
[6] = test system: Klebsiella pneumoniae; assay: Synergistic […] activity against Klebsiella pneumoniae ATCC10031 assessed as fractional inhibitory concentration index incubated for 22 to 24 hrs in presence of gentamicin by CLSI based broth microdilution method; format: functional; conditions: time 22-24 hrs
[7] = test system: Staphylococcus aureus; assay: Antibacterial activity against methicillin-resistant Staphylococcus aureus N315 assessed as reduction in bacterial growth incubated for 22 to 24 hrs in presence of MgCl2 by CLSI based broth microdilution method; format: functional; conditions: time 22-24 hrs
[8] = test system: Staphylococcus aureus; assay: Bactericidal activity against Staphylococcus aureus ATCC29213 assessed as log reduction in bacterial load at 8 times of MIC measured with in 4 hrs by time kill assay; format: functional
[9] = test system: Staphylococcus aureus; assay: Bactericidal activity against methicillin-resistant Staphylococcus aureus NCTC10442 assessed as cell killing at 8 times of MIC measured with in 1 hr by time kill assay relative to control; format: functional
[10] = test system: Staphylococcus aureus; assay: Antibacterial activity against Staphylococcus aureus ATCC29213 assessed as reduction in bacterial growth incubated for 22 to 24 hrs in presence of KCl by CLSI based broth microdilution method; format: functional; conditions: time 22-24 hrs
[11] = test system: Staphylococcus aureus; assay: Antibacterial activity against Staphylococcus aureus ATCC29213 assessed as reduction in bacterial growth incubated for 22 to 24 hrs in presence of NaCl by CLSI based broth microdilution method; format: functional; conditions: time 22-24 hrs
[12] = Cytotoxicity against HEK293 cells assessed as viable cells at 6.25 ug/ml incubated for 24 hrs by CCK-8 assay relative to control; format: toxicity, cell-based; conditions: human, at 6.25 µg/mL, read-out: Activity
[13] = test system: Staphylococcus aureus; assay: Synergistic […] activity against methicillin-resistant Staphylococcus aureus NCTC10442 assessed as fractional inhibitory concentration index incubated for 22 to 24 hrs in presence of vancomycin by CLSI based broth microdilution method; format: functional; conditions: time 22-24 hrs
[14] = test system: Staphylococcus aureus; assay: Induction of membrane permeabilization in Staphylococcus aureus ATCC29213 assessed as increase in fluorescence intensity measured upto 60 mins by SYTOX green assay; format: functional, organism-based
[15] = Cytotoxicity against mouse NCTC clone 929 cells assessed reduction in cell viability incubated for 24 hrs by CCK-8 assay; format: toxicity, cell-based; conditions: NCTC clone 929 (L929) cells
[16] = test system: Staphylococcus aureus; assay: Antibacterial activity against methicillin-resistant Staphylococcus aureus NCTC10442 assessed as reduction in bacterial growth incubated for 22 to 24 hrs in presence of CaCl2 by CLSI based broth microdilution method; format: functional; conditions: time 22-24 hrs
[17] = test system: Staphylococcus aureus; assay: Antibacterial activity against Staphylococcus aureus ATCC29213 assessed as reduction in bacterial growth incubated for 22 to 24 hrs in presence of FeCl3 by CLSI based broth microdilution method; format: functional; conditions: time 22-24 hrs
[18] = test system: Klebsiella pneumoniae; assay: Antibacterial activity against Klebsiella pneumoniae ATCC10031 assessed as reduction in microbial growth incubated for 22 to 24 hrs by CLSI based broth microdilution method; format: functional; conditions: time 22-24 hrs
[19] = test system: Acinetobacter baumannii; assay: Synergistic […] activity against Acinetobacter baumannii ATCC17978 assessed as fractional inhibitory concentration index incubated for 22 to 24 hrs in presence of levofloxacin by CLSI based broth microdilution method; format: functional; conditions: time 22-24 hrs
[20] = Cytotoxicity against mouse NCTC clone 929 cells assessed as viable cells at 6.25 ug/ml incubated for 24 hrs by CCK-8 assay relative to control; format: toxicity, cell-based; conditions: NCTC clone 929 (L929) cells, at 6.25 µg/mL, read-out: Activity
[21] = test system: Staphylococcus epidermidis; assay: Antibacterial activity against Staphylococcus epidermidis ATCC12228 assessed as reduction in microbial growth incubated for 22 to 24 hrs by CLSI based broth microdilution method; format: functional; conditions: time 22-24 hrs
[22] = test system: Staphylococcus aureus; assay: Synergistic […] activity against methicillin-resistant Staphylococcus aureus NCTC10442 assessed as fractional inhibitory concentration index incubated for 22 to 24 hrs in presence of linezolid by CLSI based broth microdilution method; format: functional; conditions: time 22-24 hrs
[23] = test system: Staphylococcus aureus; assay: Antibacterial activity against methicillin-resistant Staphylococcus aureus N315 assessed as reduction in microbial growth incubated for 22 to 24 hrs by CLSI based broth microdilution method; format: functional; conditions: time 22-24 hrs
[24] = test system: Staphylococcus aureus; assay: Bactericidal activity against methicillin-resistant Staphylococcus aureus NCTC10442 assessed as cell killing at 4 to 8 times of MIC measured up to 24 hrs by time kill assay; format: functional, organism-based
[25] = test system: Acinetobacter baumannii; assay: Synergistic […] activity against Acinetobacter baumannii ATCC17978 assessed as fractional inhibitory concentration index incubated for 22 to 24 hrs in presence of meropenem by CLSI based broth microdilution method; format: functional; conditions: time 22-24 hrs
[26] = test system: Staphylococcus aureus; assay: Antibacterial activity against methicillin-resistant Staphylococcus aureus NCTC10442 assessed as reduction in microbial growth incubated for 22 to 24 hrs by CLSI based broth microdilution method; format: functional; conditions: time 22-24 hrs
[27] = test system: Staphylococcus aureus; assay: Synergistic […] activity against Staphylococcus aureus ATCC29213 assessed as fractional inhibitory concentration index incubated for 22 to 24 hrs in presence of teicoplanin by CLSI based broth microdilution method; format: functional; conditions: time 22-24 hrs
[28] = test system: Klebsiella pneumoniae; assay: Synergistic […] activity against Klebsiella pneumoniae ATCC10031 assessed as fractional inhibitory concentration index incubated for 22 to 24 hrs in presence of amikacin by CLSI based broth microdilution method; format: functional; conditions: time 22-24 hrs
[29] = Cytotoxicity against mouse NCTC clone 929 cells assessed as viable cells at 25 ug/ml incubated for 24 hrs by CCK-8 assay relative to control; format: toxicity, cell-based; conditions: NCTC clone 929 (L929) cells, at 25 µg/mL, read-out: Activity
[30] = test system: Staphylococcus aureus; assay: Antibacterial activity against methicillin-resistant Staphylococcus aureus N315 assessed as reduction in bacterial growth incubated for 22 to 24 hrs in presence of ZnSO4.7H2O by CLSI based broth microdilution method; format: functional; conditions: time 22-24 hrs
[31] = test system: Staphylococcus aureus; assay: Antibacterial activity against methicillin-resistant Staphylococcus aureus NCTC10442 assessed as reduction in bacterial growth incubated for 22 to 24 hrs in presence of FeCl2 by CLSI based broth microdilution method; format: functional; conditions: time 22-24 hrs
[32] = test system: Staphylococcus aureus; assay: Antibacterial activity against Staphylococcus aureus ATCC29213 infected in C57BL6 mouse corneal infection model assessed as bacterial killing at 0.5 % administered topically on corneas for four times in 3 days by MHA plate counting method relative to control; format: functional; conditions: route top, time 3 day
[33] = test system: Staphylococcus aureus; assay: Antibacterial activity against Staphylococcus aureus ATCC29213 assessed as reduction in bacterial growth incubated for 22 to 24 hrs in presence of ZnSO4.7H2O by CLSI based broth microdilution method; format: functional; conditions: time 22-24 hrs

Compound: COC(=O)[C@H](CCCNC(=N)N)NC(=O)[C@H](CCCNC(=N)N)NC(=O)COc1ccc(S(=O)(=O)c2ccc(OC/C=C(/C)CCC=C(C)C)cc2)cc1
- Activity [1]: Dose-Dependent Effect
- MIC [2]: 1.56 µg/mL
- viability at 24 h, 3.125 ug/ml [3]: 102%
- fractional inhibitory concentration index (FICI) [4]: 1
- MIC [5]: 12.5 µg/mL
- fractional inhibitory concentration index (FICI) [6]: 0.5
- MIC [7]: 1.56 µg/mL
- log(activity) [8]: 3
- Activity [9]: 99.99%
- MIC [10]: 1.56 µg/mL
- MIC [11]: 1.56 µg/mL
- viability at 24 h, 6.25 ug/ml [12]: 96.1%
- fractional inhibitory concentration index (FICI) [13]: 0.5
- Activity [14]: Dose-Dependent Effect
- CC50 at 24 h [15]: > 100 µg/mL
- MIC [16]: 3.12 µg/mL
- MIC [17]: 1.56 µg/mL
- MIC [18]: 6.25 µg/mL
- fractional inhibitory concentration index (FICI) [19]: 0.25
- viability at 24 h, 6.25 ug/ml [20]: 91.5%
- MIC [21]: 1.56 µg/mL
- fractional inhibitory concentration index (FICI) [22]: 0.27
- MIC [23]: 0.78 µg/mL
- Activity [24]: Active
- fractional inhibitory concentration index (FICI) [25]: 0.25
- MIC [26]: 0.78 µg/mL
- fractional inhibitory concentration index (FICI) [27]: 0.31
- fractional inhibitory concentration index (FICI) [28]: 0.31
- viability at 24 h, 25 ug/ml [29]: 87.6%
- MIC [30]: 1.56 µg/mL
- MIC [31]: 1.56 µg/mL
- Activity [32]: 99.99%
- MIC [33]: 1.56 µg/mL
